In brackets after ≈: the same amount, converted by molar mass. Several values for one entry are separate records, joined by “and”; a condition that tells them apart may be missing. Equal values may be shown once. Read-outs that look alike come from different tables or passages of the source.
Key:
Format in all cases: cell-based
HIV-1 (RF) = test: microbe, parasite or virus in culture; conditions: for Efficacy testing, optical density of single wells: listed as R2K18001 (90I)
From the text: This assay was used to test the effectiveness of anti-HIV drug monotherapy in the established T-cell line CEM-SS infected with HIV-1RF, HIV-1IIIb, HIV-2ROD, or other cytolytic variants of HIV.
The drugs were solubilized in DMSO (dimethyl sulfoxide). […] CEM-SS cells were in logarithmic growth phase at the time of experimentation. Virus (HIV-1RF) stocks that past the necessary quality controls (killing effect on the type of cells used, limited variability, etc) were thawed and maintained on ice until required for addition.
Half-log serial dilutions of the antiviral agent or compound of the invention, H2K1001 (90i), were made in tissue culture media (RPMI 1640 without phenol red, supplemented with 10% heat inactivated fetal bovine serum, 1% L-Glutamine, 1% Pen/Strep and 50 ug/ml gentimycin). Virus, cell, drug and diluent (ethanol) controls were included for these tests. Virus was added after cells and drugs were mixed. Cell, drug, and virus containing cultures were incubated for six (6) days without additional feeding at which time the cultures were evaluated macroscopically and microscopically for cell toxicity, and the tetrazolium salt […] was added for quantitation by the colorimetric determination of formazan production (optical density).
Drug efficacy and cytotoxicity effects were determined six days after infection by the metabolic reduction of the tetrazolium salt XTT to its‘ formazan by surviving cells and was quantitated by determination of optical density at 450 nm with background subtraction at 650 nm (Tables 1-4).
The drug plate analysis reports from this assay are provided below in Tables 1-4. Calculated endpoints (EC50, etc.) were determined using Cho and Cho Median Effect Equation (Daids Virology Manual for HIV Laboratories, Compiled by The Division of Aids, National Institute of Allergy and Infectious Diseases, National Institutes of Health and Collaborating Investigators, Version January 1997).

HIV-1 (P2) = test: Antiviral drug assay in PBMC (supernatant p24); conditions: for p24 testing data, single readings: listed as H2K-1001 (900); for EC50: Human immunodeficiency virus 1, PBMC
Method: (§1) Drug efficacy was determined by the production of supernatant HIV-1 p24. Drug-induced cytotoxicity was determined by the metabolic reduction of tetrazolium salts (MTS; Promega).
(§2) The antiviral drug or agent of the invention, H2K-1001 (90i), was solubilized. PBMCs, stimulated with PHA (phytohemagglutinin) for three days were employed throughout. Virus stocks (U.S. Clinical isolates) grown in PBMCs only, that past the necessary quality controls (i.e., replicate to high titer in PBMCs and meet the requirements as to genotype and phenotype) were rapidly thawed and maintained on ice until required for infection.
(§3) Virus and cell controls were included on each test plate. Virus was added after cells and drugs were mixed. Cell, drug and virus containing cultures were incubated for seven (7) days with an interim feeding at day three or four.
(§4) Supernatants were sampled at seven days for p24 determination by antigen capture ELISA. Cytotoxicity was measured by the metabolic reduction of the tetrazolium salt according to the manufacturer’s (Promega) recommendations.
(§5) The drug analysis reports from these studies are provided below in Tables 7-10. Efficacy (EC50) and viability (IC50) determinations were made using Cho and Cho Median Effect Equation, as noted above. Efficacy is expressed as the 50% effective concentration (EC50) and drug induced toxicity as the 50% inhibitory concentration (IC50).

[1] = test system: peripheral blood mononuclear cells (PBMC); test: Drug-induced cytotoxicity in PBMC (MTS); conditions: for Toxicity testing, mean optical density: human, 7 days
Method: as §1, §2, §3, §4, §5

[2] = test system: chronically HIV-1 infected H9 cells; test: Co-cultivation study with chronically HIV-1 infected H9 cells
From the text: Viral pathogenesis in co-cultivation of infected cells with uninfected target cells presents a complex system with several target sites (attachment, fusion, transcription, processing, packaging and budding).
In many documented antiretroviral studies, the co-culture system is conventionally used to isolate the virus as well as to study cell-to-cell transmission or to determine if a given compound blocks cell fusion. H2K1001 and/or 90I may use aggressive intervention that could possibly be directed to at least one of a late phase, early fusion and/or attachment, and both early and late. However, judging from the variety of 90I results, early and late mode of action is consistent to this compound.

O=C(OCCOCCOC(=O)c1ccccc1)c1ccccc1 [90I, diethylene glycol dibenzoate]
Efficacy % CC (HIV-1 (RF); 0.01 ug/ml): 42 % CC
Efficacy testing, mean optical density (HIV-1 (RF); 0.01 ug/ml): 1.0282
Efficacy testing, optical density of single wells (HIV-1 (RF); 0.01 ug/ml): 0.9892 and 1.0238 and 1.0477
Efficacy % CC (HIV-1 (RF); 0.03 ug/ml): 80 % CC
Efficacy testing, mean optical density (HIV-1 (RF); 0.03 ug/ml): 1.9368
Efficacy testing, optical density of single wells (HIV-1 (RF); 0.03 ug/ml): 2.0839 and 1.6926 and 2.0343
Efficacy % CC (HIV-1 (RF); 0.1 ug/ml): 87 % CC
Efficacy testing, mean optical density (HIV-1 (RF); 0.1 ug/ml): 2.1073
Efficacy testing, optical density of single wells (HIV-1 (RF); 0.1 ug/ml): 2.2196 and 2.0140 and 2.0883
Efficacy % CC (HIV-1 (RF); 0.3 ug/ml): 83 % CC
Efficacy testing, mean optical density (HIV-1 (RF); 0.3 ug/ml): 2.0091
Efficacy testing, optical density of single wells (HIV-1 (RF); 0.3 ug/ml): 2.1099 and 1.8158 and 2.1016
Efficacy % CC (HIV-1 (RF); 1 ug/ml): 84 % CC
Efficacy testing, mean optical density (HIV-1 (RF); 1 ug/ml): 2.0264
Efficacy testing, optical density of single wells (HIV-1 (RF); 1 ug/ml): 2.2771 and 1.9186 and 1.8914
Efficacy % CC (HIV-1 (RF); 3 ug/ml): 84 % CC
Efficacy testing, mean optical density (HIV-1 (RF); 3 ug/ml): 2.0459
Efficacy testing, optical density of single wells (HIV-1 (RF); 3 ug/ml): 2.2499 and 1.9311 and 1.9576
Efficacy % CC (HIV-1 (RF); 10 ug/ml): 82 % CC
Efficacy testing, mean optical density (HIV-1 (RF); 10 ug/ml): 1.9797
Efficacy testing, optical density of single wells (HIV-1 (RF); 10 ug/ml): 2.0385 and 2.0038 and 1.8968
Efficacy % CC (HIV-1 (RF); 33 ug/ml): 86 % CC
Efficacy testing, mean optical density (HIV-1 (RF); 33 ug/ml): 2.0805
Efficacy testing, optical density of single wells (HIV-1 (RF); 33 ug/ml): 2.1945 and 1.9560 and 2.0909
Efficacy % CC (HIV-1 (RF); 100 ug/ml): 88 % CC
Efficacy testing, mean optical density (HIV-1 (RF); 100 ug/ml): 2.1221
Efficacy testing, optical density of single wells (HIV-1 (RF); 100 ug/ml): 2.2450 and 1.9588 and 2.1625
therapeutic index (TI=IC50/EC50) (HIV-1 (RF); HIV-1 RF in CEM-SS): greater than 5000
EC50 (HIV-1 (RF); Human immunodeficiency virus 1, CEM-SS, read-out: 50% effective concentration (EC50), RF laboratory strain of HIV-1 in CEM-SS): ~0.02 µg/mL (≈ 0.0636 µM)
Efficacy % p24 Reduction (HIV-1 (P2); 0.01 ug/ml): 23%
p24 testing data, mean reading (HIV-1 (P2); 0.01 ug/ml): 2.2023
p24 testing data, single readings (HIV-1 (P2); 0.01 ug/ml): 2.100 and 2.2130 and 2.2937
Efficacy % p24 Reduction (HIV-1 (P2); 0.03 ug/ml): 25%
p24 testing data, mean reading (HIV-1 (P2); 0.03 ug/ml): 2.1373
p24 testing data, single readings (HIV-1 (P2); 0.03 ug/ml): 2.1210 and 1.9460 and 2.3450
Efficacy % p24 Reduction (HIV-1 (P2); 0.10 ug/ml): 36%
p24 testing data, mean reading (HIV-1 (P2); 0.10 ug/ml): 1.8337
p24 testing data, single readings (HIV-1 (P2); 0.10 ug/ml): 1.9461 and 1.8101 and 1.7450
Efficacy % p24 Reduction (HIV-1 (P2); 0.33 ug/ml): 36%
p24 testing data, mean reading (HIV-1 (P2); 0.33 ug/ml): 1.8344
p24 testing data, single readings (HIV-1 (P2); 0.33 ug/ml): 1.9451 and 1.7120 and 1.8460
Efficacy % p24 Reduction (HIV-1 (P2); 1 ug/ml): 53%
p24 testing data, mean reading (HIV-1 (P2); 1 ug/ml): 1.3316
p24 testing data, single readings (HIV-1 (P2); 1 ug/ml): 1.4266 and 1.4567 and 1.1116
p24 testing data, mean reading (HIV-1 (P2); 3 ug/ml): 0.3713
Efficacy % p24 Reduction (HIV-1 (P2); 3 ug/ml (3.2 in Table 11)): 87%
p24 testing data, single readings (HIV-1 (P2); 3 ug/ml): 0.4510 and 0.3219 and 0.3410
Efficacy % p24 Reduction (HIV-1 (P2); 10 ug/ml): 95%
p24 testing data, mean reading (HIV-1 (P2); 10 ug/ml): 0.1397
p24 testing data, single readings (HIV-1 (P2); 10 ug/ml): 0.1090 and 0.1220 and 0.1874
Efficacy % p24 Reduction (HIV-1 (P2); 32 ug/ml): 94%
p24 testing data, mean reading (HIV-1 (P2); 32 ug/ml): 0.1690
Efficacy % p24 Reduction (HIV-1 (P2); 100 ug/ml): 93%
p24 testing data, mean reading (HIV-1 (P2); 100 ug/ml): 0.1946
p24 testing data, single readings (HIV-1 (P2); 100 ug/ml): 0.1530 and 0.1820 and 0.2488
TI (HIV-1 (P2); HIV-1 P2 in PBMC): greater than 125
EC50 (HIV-1 (P2); HIV-1 P2 clinical isolate in PBMC, read-out: EC50): ~0.8 µg/mL (≈ 2.55 µM)
EC50 (HIV-1 (P2); PBMC, virus printed HIV-IRF, read-out: BC50 (the source's name)): 0.8 µg/mL (≈ 2.55 µM)
Toxicity % CC ([1]; 0.01 ug/ml): 94 % CC
Toxicity % CC ([1]; 0.03 ug/ml): 103 % CC
Toxicity % CC ([1]; 0.10 ug/ml): 91 % CC
Toxicity % CC ([1]; 0.33 ug/ml): 94 % CC
Toxicity % CC ([1]; 1 ug/ml): 97 % CC
Toxicity % CC ([1]; 3 ug/ml (3.2 in Table 11)): 94 % CC
Toxicity % CC ([1]; 10 ug/ml): 100 % CC
Toxicity % CC ([1]; 32 ug/ml): 104 % CC
Toxicity % CC ([1]; 100 ug/ml): 111 % CC
IC50 ([1]; PBMC, read-out: IC50 (drug induced toxicity)): > 100 µg/mL
IC50 (drug induced toxicity) ([1]; PBMC, unit not given): greater than 100
Toxicity testing, mean optical density ([1]; 0.01 ug/ml): 1.3114
Toxicity testing, mean optical density ([1]; 0.03 ug/ml): 1.4316
Toxicity testing, mean optical density ([1]; 0.1 ug/ml): 1.2654
Toxicity testing, mean optical density ([1]; 0.33 ug/ml): 1.2992
Toxicity testing, mean optical density ([1]; 1 ug/ml): 1.3474
Toxicity testing, mean optical density ([1]; 3 ug/ml): 1.3102
Toxicity testing, mean optical density ([1]; 10 ug/ml): 1.3987
Toxicity testing, mean optical density ([1]; 32 ug/ml): 1.4463
Toxicity testing, mean optical density ([1]; 100 ug/ml): 1.5431
syncytium formation ([2]; co-cultivation): drastic drop
cell viability ([2]; co-cultivation, exponential cell growth): greater than ninety percent
viral burden (p24) after treatment ([2]; co-cultivation, from 1.7 ×10^6 pg of p24): 500 pg
progression of HIV-1 infection ([2]; compared to untreated controls): effectively blocked the progression of HIV-1 infection

Reference: patent US20230321025A1, “METHOD AND COMPOUND FOR THE TREATMENT AND ELIMINATION OF AN IMMUNODEFICIENCY CONDITION” (priority 2020, published 2023)
